How the values were obtained:
Format in all cases: nucleic-acid assay
Nucleic Acid [1] = assay: DNA cleavage activity using supercoiled bacteriophage (piX174Rf II) DNA at 10e-4 M concentration (5% control)
Nucleic Acid [2] = assay: DNA cleavage activity using supercoiled bacteriophage (piX174Rf III) DNA at 10e-5 M concentration (0% control)
Nucleic Acid [3] = assay: DNA cleavage activity using supercoiled bacteriophage (piX174Rf II) DNA at 10e-5 M concentration (5% control)
Nucleic Acid [4] = assay: DNA cleavage activity using supercoiled bacteriophage (piX174Rf II) DNA at 10e-3 M concentration (5% control)
Nucleic Acid [5] = assay: DNA cleavage activity using supercoiled bacteriophage (piX174Rf III) DNA at 10e-3 M concentration (0% control)
Nucleic Acid [6] = assay: DNA cleavage activity using supercoiled bacteriophage (piX174Rf III) DNA at 10e-4 M concentration (0% control)
Nucleic Acid [7] = assay: DNA cleavage activity using supercoiled bacteriophage (piX174Rf I) DNA at 10e-5 M concentration (95% control)
Nucleic Acid [8] = assay: DNA cleavage activity using supercoiled bacteriophage (piX174Rf I) DNA at 10e-4 M concentration (95% control)
Nucleic Acid [9] = assay: DNA cleavage activity using supercoiled bacteriophage (piX174Rf I) DNA at 10e-3 M concentration (95% control)

| SMILES | Cleavage (Nucleic Acid [1]) [%] | Cleavage (Nucleic Acid [2]) [%] | Cleavage (Nucleic Acid [3]) [%] | Cleavage (Nucleic Acid [4]) [%] | Cleavage (Nucleic Acid [5]) [%] | Cleavage (Nucleic Acid [6]) [%] | Cleavage (Nucleic Acid [7]) [%] | Cleavage (Nucleic Acid [8]) [%] | Cleavage (Nucleic Acid [9]) [%] |
| --- | --- | --- | --- | --- | --- | --- | --- | --- | --- |
| O=C(OCC1CC#C/C=C\C#CCC1)c1cc2c3ccccc3c3ccccc3c2[nH]1 (stereo not drawn) | 55 | 0 | 21 | 88 | 5 | 0 | 79 | 45 | 7 |
| O=C(OCC1CC#C/C=C\C#CCC1)c1ccccc1 (stereo not drawn) | 22 | 0 | 7 | 82 | 3 | 0 | 93 | 78 | 15 |

From ChEMBL document CHEMBL1150527, “Bifunctional antitumor agents: a DNA interactive enediyne from the pyrrolo[9,10-b]phenanthrene template” (Bioorg Med Chem Lett, 1997)
